# Measurements: ChEMBL document CHEMBL3351377, “Scaffold hopping towards potent and selective JAK3 inhibitors: discovery of novel C-5 substituted pyrrolopyrazines” (Bioorg Med Chem Lett, 2014)
# Biological target: Tyrosine-protein kinase JAK1 (Homo sapiens, UniProt P23458)
row,IC50 [µM],Compound
1,0.287,CC[C@H](CO)Nc1ncc(-c2cnc3[nH]ccc3n2)c(N[C@H]2CCCN(S(C)(=O)=O)C2)n1
2,0.189,CN1CCN(c2ncc(-c3cnc4[nH]ccc4n3)c(N[C@H]3CCCN(S(C)(=O)=O)C3)n2)CC1
